Laboratory results as given in patent US8575091B1, “Amylin analogues and pharmaceutical compositions thereof” (Novo Nordisk A/S, priority 2012, dated 2013).
Numbered stars: 1 amine (or outer) side, 2 acyl side, 3 side chain; on linkers, the order of the positions; unused ones are H or OH. Bridge positions count the residues as written; N and C are the ends. Side chains are listed from the residue outwards. Peptide text beside a SMILES is read from it. * marks the point of attachment. C20 diacid = O=C(O)CCCCCCCCCCCCCCCCCCC(=O)*; γGlu = O=C(O)[C@H](CCC(=O)[*:2])N[*:1]

What was measured:
[1] = target: T1, human calcitonin receptor (Homo sapiens, UniProt P30988); experiment: Assay (VII) binding to the human calcitonin receptor (SPA, 125I-Calcitonin); details: read-out: hCTR bind IC50;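 also: cell membranes coupled to SPA beads, competitive displacement read by scintillation counting, IC50 derived from a one-site competition fit as a measure of receptor affinity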
T1 construct: expressed in transfected cells
T1 sequence (P30988 25-474): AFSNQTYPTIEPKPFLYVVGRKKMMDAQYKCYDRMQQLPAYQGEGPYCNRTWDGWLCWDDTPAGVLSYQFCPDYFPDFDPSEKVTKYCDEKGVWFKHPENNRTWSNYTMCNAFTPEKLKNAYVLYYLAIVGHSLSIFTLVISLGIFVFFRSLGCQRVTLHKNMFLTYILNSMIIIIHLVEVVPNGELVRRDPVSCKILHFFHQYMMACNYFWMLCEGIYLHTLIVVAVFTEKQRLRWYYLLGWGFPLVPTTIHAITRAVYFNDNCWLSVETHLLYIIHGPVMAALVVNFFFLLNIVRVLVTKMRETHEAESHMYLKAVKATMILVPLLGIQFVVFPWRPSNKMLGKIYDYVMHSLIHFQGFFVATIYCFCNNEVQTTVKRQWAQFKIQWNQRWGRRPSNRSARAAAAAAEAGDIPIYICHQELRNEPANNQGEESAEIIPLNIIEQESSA

[2] = target: T2, human amylin receptor (amylin 3(a) receptor: human calcitonin receptor + RAMP-3) (Homo sapiens, UniProt O60896+P30988); experiment: Assay (II)a functional assay, human amylin receptor (CRE luciferase, BHK cells); type: cell-based; details: for EC50: functional assay, human amylin receptor, read-out: hAmylin-R funct. EC50
T2 construct: expressed in transfected cells
T2 sequence (P30988 25-474): T1 sequence (P30988 25-474)
T2 sequence (O60896 24-148 partner): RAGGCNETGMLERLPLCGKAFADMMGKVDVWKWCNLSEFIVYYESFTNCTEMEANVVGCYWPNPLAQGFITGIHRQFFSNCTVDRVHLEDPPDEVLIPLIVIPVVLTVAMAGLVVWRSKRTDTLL
Description: Assay (II)—Functional Assays
(§1) Consequently, transcription is activated by promoters containing multiple copies of the cAMP response element (CRE).
(§2) The cell line was further transfected with RAMP-3, using standard methods.
(§3) After incubation overnight at 37° C. and 5% CO2, the growth medium was replaced by 50 μl/well assay medium (DMEM (without phenol red), Glutamax™, 10% FBS, and 10 mM Hepes, pH 7.4). Further, 50 μl/well of standard or sample in assay buffer were added. After 3 hours incubation at 37° C. and 5% CO2, the assay medium with standard or sample were removed and replaced by 100 μl/well PBS. Further, 100 μl/well LucLite™ was added. The plates were sealed and incubated at room temperature for 30 minutes. Finally, luminescence was measured on a TopCounter (Packard) in SPC (single photon counting) mode.

human amylin receptor = target: T3, human amylin receptor (Homo sapiens, UniProt O60896+P30988); experiment: Assay (V) binding to the human amylin receptor (SPA, 125I-rat amylin); details: human amylin receptor membranes, SPA; read-out: hAmylin-R bind IC50
T3 construct: expressed in transfected cells
T3 sequence (P30988 25-474): T1 sequence (P30988 25-474)
T3 sequence (O60896 24-148 partner): T2 sequence (O60896 24-148 partner)
In short: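 IC50, taken as receptor affinity, came from one-site binding competition analysis of scintillation proximity counts. Amylin 3(a)/CRE-luc cell membranes (35 ng/μL final) were mixed with SPA beads (0.05 mg/well) in 50 mM Hepes pH 7.4 containing CaCl2, MgCl2, 0.1% OA and 0.02% Tween20.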

[3] = target: T1, human calcitonin receptor; experiment: Assay (II)a functional assay, human calcitonin receptor (CRE luciferase, BHK cells);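 also: luminescence from a CRE-driven luciferase reporter, read by single photon counting after cells were exposed to test samples for 3 h at 37 °C under 5% CO2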; type: cell-based; details: read-out: hCTR funct. EC50
Description: Assay (II)—Functional Assays
as §1, §2, §3

[4] = Table 6, human functional selectivity (hCTR EC50 / hAmylin-R EC50)

| SMILES | IC50 [1] [nM] | Ratio hCT/hAmylin funct. [2, 4] | Ratio hCT/hAmylin funct. ([2]; Table 6a, human functional selectivity (hCTR EC50 / hAmylin-R EC50), at least 5) | Ratio hCT/hAmylin funct. ([2]; Table 6j, hCTR funct. EC50 / hAmylin-R funct. EC50) | Ratio hCT/hAmylin funct. ([2]; Table 6k, hCTR funct. EC50 / hAmylin-R funct. EC50) | EC50 [2] [nM] | IC50 (human amylin receptor) [nM] | EC50 [3] [nM] |
| --- | --- | --- | --- | --- | --- | --- | --- | --- |
| CC[C@H](C)[C@H](NC(=O)[C@H](C)NC(=O)CNC(=O)[C@H](Cc1ccccc1)NC(=O)[C@H](CC(N)=O)NC(=O)[C@@H]1CCCN1C(=O)[C@H](CO)NC(=O)[C@H](CO)NC(=O)[C@H](Cc1c[nH]cn1)NC(=O)[C@H](CCCNC(=N)N)NC(=O)[C@H](CC(C)C)NC(=O)[C@H](Cc1ccccc1)NC(=O)[C@H](Cc1c[nH]cn1)NC(=O)[C@H](C)NC(=O)[C@H](CC(C)C)NC(=O)[C@H](CCCNC(=N)N)NC(=O)[C@H](CCC(N)=O)NC(=O)[C@@H](NC(=O)[C@H](C)NC(=O)[C@@H]1CSSC[C@H](NC(=O)[C@H](CCCNC(=N)N)NC(=O)CNC(=O)CC[C@H](NC(=O)CCCCCCCCCCCCCCCCCCC(=O)O)C(=O)O)C(=O)N[C@@H](CC(N)=O)C(=O)N[C@@H]([C@@H](C)O)C(=O)N[C@@H](C)C(=O)N[C@@H]([C@@H](C)O)C(=O)N1)[C@@H](C)O)C(=O)N1CCC[C@H]1C(=O)N[C@@H](CO)C(=O)N[C@@H](CO)C(=O)N[C@H](C(=O)N[C@@H](CC(N)=O)C(=O)N[C@H](C(=O)NCC(=O)N[C@@H](CO)C(=O)N[C@@H](CC(N)=O)C(=O)N[C@H](C(=O)N[C@@H](Cc1ccc(O)cc1)C(N)=O)[C@@H](C)O)C(C)C)[C@@H](C)O [Example 99] ({C20 diacid-γGlu}-GRCNTATCATQRLAHFLRHSSPNFGAIPSSTNVGSNTY-NH2; disulfide 3-8) | 35 | 10.0 | 10.0 | 10.0 | 10.0 | 0.082 | 0.348 | 0.818 |
| CC[C@H](C)[C@H](NC(=O)[C@H](C)NC(=O)CNC(=O)[C@H](Cc1ccccc1)NC(=O)[C@H](CC(N)=O)NC(=O)[C@@H]1CCCN1C(=O)[C@H](CO)NC(=O)[C@H](CO)NC(=O)[C@H](Cc1c[nH]cn1)NC(=O)[C@H](CCCNC(=N)N)NC(=O)[C@H](CC(C)C)NC(=O)[C@H](Cc1ccccc1)NC(=O)[C@H](Cc1c[nH]cn1)NC(=O)[C@H](C)NC(=O)[C@H](CC(C)C)NC(=O)[C@H](CCCNC(=N)N)NC(=O)[C@H](CCC(N)=O)NC(=O)[C@@H](NC(=O)[C@H](C)NC(=O)[C@@H]1CSSC[C@H](NC(=O)[C@H](CCCNC(=N)N)NC(=O)CNC(=O)CC[C@H](NC(=O)CCCCCCCCCCCCCCCCCCC(=O)O)C(=O)O)C(=O)N[C@@H](CC(N)=O)C(=O)N[C@@H]([C@@H](C)O)C(=O)N[C@@H](C)C(=O)N[C@@H]([C@@H](C)O)C(=O)N1)[C@@H](C)O)C(=O)N1CCC[C@H]1C(=O)N[C@@H](CO)C(=O)N[C@@H](CO)C(=O)N[C@H](C(=O)N[C@@H](CC(N)=O)C(=O)N[C@H](C(=O)NCC(=O)N1CCC[C@H]1C(=O)N[C@@H](CC(N)=O)C(=O)N[C@H](C(=O)N[C@@H](Cc1ccc(O)cc1)C(N)=O)[C@@H](C)O)C(C)C)[C@@H](C)O [Example 102] ({C20 diacid-γGlu}-GRCNTATCATQRLAHFLRHSSPNFGAIPSSTNVGPNTY-NH2; disulfide 3-8) | 7.86 | 2.9 |  |  |  | 0.062 | 0.217 | 0.179 |
| CC[C@H](C)[C@H](NC(=O)[C@H](C)NC(=O)CNC(=O)[C@H](Cc1ccccc1)NC(=O)[C@H](CC(N)=O)NC(=O)[C@@H]1CCCN1C(=O)[C@H](CO)NC(=O)[C@H](CO)NC(=O)[C@H](Cc1c[nH]cn1)NC(=O)[C@H](CCCNC(=N)N)NC(=O)[C@H](CC(C)C)NC(=O)[C@H](Cc1ccccc1)NC(=O)[C@H](CCC(=O)O)NC(=O)[C@H](C)NC(=O)[C@H](CC(C)C)NC(=O)[C@H](CCCNC(=N)N)NC(=O)[C@H](CCC(N)=O)NC(=O)[C@@H](NC(=O)[C@H](C)NC(=O)[C@@H]1CSSC[C@H](NC(=O)[C@@H](N)CCCCNC(=O)CC[C@H](NC(=O)CC[C@H](NC(=O)CCCCCCCCCCCCCCCCCCC(=O)O)C(=O)O)C(=O)O)C(=O)N[C@@H](CC(N)=O)C(=O)N[C@@H]([C@@H](C)O)C(=O)N[C@@H](C)C(=O)N[C@@H]([C@@H](C)O)C(=O)N1)[C@@H](C)O)C(=O)N1CCC[C@H]1C(=O)N[C@@H](CO)C(=O)N[C@@H](CO)C(=O)N[C@H](C(=O)N[C@@H](CC(N)=O)C(=O)N[C@H](C(=O)NCC(=O)N[C@@H](Cc1c[nH]cn1)C(=O)N[C@@H](CCC(=O)O)C(=O)N[C@H](C(=O)N[C@@H](Cc1ccc(O)cc1)C(N)=O)[C@@H](C)O)C(C)C)[C@@H](C)O [Example 104] (H-K([γGlu-γGlu-C20 diacid])CNTATCATQRLAEFLRHSSPNFGAIPSSTNVGHETY-NH2; disulfide 2-7) | 15.2 |  |  |  |  | 0.445 | 0.525 | 7.05 |
| CC[C@H](C)[C@H](NC(=O)[C@H](C)NC(=O)CNC(=O)[C@H](Cc1ccccc1)NC(=O)[C@H](CC(N)=O)NC(=O)[C@@H]1CCCN1C(=O)[C@H](CO)NC(=O)[C@H](CO)NC(=O)[C@H](Cc1c[nH]cn1)NC(=O)[C@H](CCCNC(=N)N)NC(=O)[C@H](CC(C)C)NC(=O)[C@H](Cc1ccccc1)NC(=O)[C@H](CC(N)=O)NC(=O)[C@H](C)NC(=O)[C@H](CC(C)C)NC(=O)[C@H](CCCNC(=N)N)NC(=O)[C@H](CCC(N)=O)NC(=O)[C@@H](NC(=O)[C@H](C)NC(=O)[C@@H]1CSSC[C@H](NC(=O)[C@@H](N)CCCCNC(=O)CC[C@H](NC(=O)CCCCCCCCCCCCCCC(=O)O)C(=O)O)C(=O)N[C@@H](CC(N)=O)C(=O)N[C@@H]([C@@H](C)O)C(=O)N[C@@H](C)C(=O)N[C@@H]([C@@H](C)O)C(=O)N1)[C@@H](C)O)C(=O)N1CCC[C@H]1C(=O)N[C@@H](CO)C(=O)N[C@@H](CO)C(=O)N[C@H](C(=O)N[C@@H](CC(N)=O)C(=O)N[C@H](C(=O)NCC(=O)N[C@@H](Cc1c[nH]cn1)C(=O)N[C@@H](CC(N)=O)C(=O)N[C@H](C(=O)N[C@@H](Cc1ccc(O)cc1)C(N)=O)[C@@H](C)O)C(C)C)[C@@H](C)O [Example 111] | 10.8 |  |  |  |  | 0.034 | 0.58 | 2.21 |
| CC[C@H](C)[C@H](NC(=O)[C@H](C)NC(=O)CNC(=O)[C@H](Cc1ccccc1)NC(=O)[C@H](CC(N)=O)NC(=O)[C@@H]1CCCN1C(=O)[C@H](CO)NC(=O)[C@H](CO)NC(=O)[C@H](Cc1c[nH]cn1)NC(=O)[C@H](CCCNC(=N)N)NC(=O)[C@H](CC(C)C)NC(=O)[C@H](Cc1ccccc1)NC(=O)[C@H](CC(N)=O)NC(=O)[C@H](C)NC(=O)[C@H](CC(C)C)NC(=O)[C@H](CCCNC(=N)N)NC(=O)[C@H](CCC(N)=O)NC(=O)[C@@H](NC(=O)[C@H](C)NC(=O)[C@@H]1CSSC[C@H](NC(=O)[C@@H](N)CCCCNC(=O)CC[C@H](NC(=O)CCCCCCCCCCCCC(=O)O)C(=O)O)C(=O)N[C@@H](CC(N)=O)C(=O)N[C@@H]([C@@H](C)O)C(=O)N[C@@H](C)C(=O)N[C@@H]([C@@H](C)O)C(=O)N1)[C@@H](C)O)C(=O)N1CCC[C@H]1C(=O)N[C@@H](CO)C(=O)N[C@@H](CO)C(=O)N[C@H](C(=O)N[C@@H](CC(N)=O)C(=O)N[C@H](C(=O)NCC(=O)N[C@@H](Cc1c[nH]cn1)C(=O)N[C@@H](CC(N)=O)C(=O)N[C@H](C(=O)N[C@@H](Cc1ccc(O)cc1)C(N)=O)[C@@H](C)O)C(C)C)[C@@H](C)O [Example 112] | 24.3 |  |  |  |  | 0.028 | 1.04 | 1.09 |
| CC[C@H](C)[C@H](NC(=O)[C@H](C)NC(=O)CNC(=O)[C@H](Cc1ccccc1)NC(=O)[C@H](CC(N)=O)NC(=O)[C@@H]1CCCN1C(=O)[C@H](CO)NC(=O)[C@H](CO)NC(=O)[C@H](Cc1c[nH]cn1)NC(=O)[C@H](CCCNC(=N)N)NC(=O)[C@H](CC(C)C)NC(=O)[C@H](Cc1ccccc1)NC(=O)[C@H](CC(N)=O)NC(=O)[C@H](C)NC(=O)[C@H](CC(C)C)NC(=O)[C@H](CCCNC(=N)N)NC(=O)[C@H](CCC(N)=O)NC(=O)[C@@H](NC(=O)[C@H](C)NC(=O)[C@@H]1CSSC[C@H](NC(=O)[C@@H](N)CCCCNC(=O)CC[C@H](NC(=O)CCCCCCCCCCCCCCCCC(=O)O)C(=O)O)C(=O)N[C@@H](CC(N)=O)C(=O)N[C@@H]([C@@H](C)O)C(=O)N[C@@H](C)C(=O)N[C@@H]([C@@H](C)O)C(=O)N1)[C@@H](C)O)C(=O)N1CCC[C@H]1C(=O)N[C@@H](CO)C(=O)N[C@@H](CO)C(=O)N[C@H](C(=O)N[C@@H](CC(N)=O)C(=O)N[C@H](C(=O)NCC(=O)N[C@@H](Cc1c[nH]cn1)C(=O)N[C@@H](CC(N)=O)C(=O)N[C@H](C(=O)N[C@@H](Cc1ccc(O)cc1)C(N)=O)[C@@H](C)O)C(C)C)[C@@H](C)O [Example 113] | 22.7 |  |  |  |  | 0.096 | 0.382 | 5.85 |
